Measurements published in the OPERA property sets (Mansouri et al. 2018).

Details: for log10 BCF / log10 biotransformation half-life (days): fish

Structure (SMILES) | boiling point [°C] | melting point [°C] | also measured
CCC(C)Cl (stereo unspecified) | 68 | -140 | log10 Henry constant (atm·m³/mol): -1.62; log10 vapour pressure (mmHg): 2.19
Cc1ccc2cc3ccc4ccccc4c3cc2c1 | – | 183 | –
CB(C)N(C)C | 65 | -92 | –
CCCC(C)CC(C)CC (stereo unspecified) | 159 | – | –
Nc1ccc(C=CC(=O)O)cc1 | 285 | 122 | –
C#CCOS(=O)OC1CCCCC1Oc1ccc(C(C)(C)C)cc1 (stereo unspecified) | – | – | log10 Koc (L/kg): 3.6; log10 vapour pressure (mmHg): -6.52
Clc1cc2oc3c(Cl)c(Cl)c(Cl)c(Cl)c3c2cc1Cl | – | – | log10 Koa: 10.8; log10 BCF: 3.9
CC1=C(C)CCCC1 | 138 | -84.1 | –
CB(C)C | -20.2 | -162 | –
CC[C@H](C(N)=O)[C@@H](C)CC | – | 114 | –
N#CCc1ccc(N)cc1 | 312 | 46 | –
O=C(O)Cc1ccccc1 | 266 | 76.5 | log10 Koc (L/kg): 1.45; log10 vapour pressure (mmHg): -2.42; ready biodegradability: readily biodegradable
C=CCOC(=O)CC | 124 | – | –
O=C(c1ccccc1)N1CCCCC1 | 320 | 49 | –
CC(CO)Oc1ccccc1 (stereo unspecified) | 244 | – | –
Nc1ccccc1C=O | – | 39 | –

Structure (SMILES) | boiling point [°C] | melting point [°C] | also measured
Clc1cc(Cl)cc(Cl)c1 | 208 | 63.5 | log10 Henry constant (atm·m³/mol): -2.72; log10 Koa: 4.85; log10 Koc (L/kg): 2.85; log10 vapour pressure (mmHg): -0.62; ready biodegradability: not readily biodegradable; log10 BCF: 2.97; log10 biotransformation half-life (days): 1.19
OCCC(O)CO (stereo unspecified) | 312 | – | –
NS(=O)(=O)c1ccc(Cl)c(S(N)(=O)=O)c1 | – | 207 | –
CC(CCl)[N+](=O)[O-] (stereo unspecified) | 172 | – | –
CN[C@@H](C)[C@H](O)c1ccccc1 | 255 | – | –
COc1ccc(O)c([N+](=O)[O-])c1 | – | 79 | log10 Henry constant (atm·m³/mol): -5.73
C=C(C)[C@H](C)O | 114 | – | –
Cc1cc(C)c(O)c(C)c1 | 220 | 73 | log10 vapour pressure (mmHg): -1.76; ready biodegradability: not readily biodegradable; log10 BCF: 0.93; log10 biotransformation half-life (days): -1.3
CCCC(Cl)Cl | 114 | – | log10 vapour pressure (mmHg): 1.36
CC(=O)Oc1ccc(OC(C)=O)c(-c2ccccc2)c1 | – | 68 | –
C=C(C)c1ccc(C)c2ccc(C=O)c-2c1 | – | 58 | –
CCc1ccc2cc3ccccc3cc2c1 | – | 152 | log10 vapour pressure (mmHg): -5.28
COC(=O)c1ccc2ccccc2c1 | 290 | 77 | –
Brc1cn[nH]c1 | 255 | 94.5 | –
CC(C)C[Si](Cl)(Cl)Cl | 143 | – | –
Nc1cccc(N)c1N | 336 | 103 | –
